In ChEMBL document CHEMBL6182830, “Hepatocyte targeting via the asialoglycoprotein receptor” (RSC Med Chem, 2025):

test: Binding affinity to human ASGR assessed as dissociation constant by SPR analysis

Row | Structure (SMILES) | Kd
1 | CC(=O)N[C@@H]1[C@@H](O)[C@@H](O)[C@@H](CO)O[C@H]1O | 40.4 µM
2 | CO[C@@H]1O[C@H](CO)[C@H](O)[C@H](O)[C@H]1O | 880 µM
3 | O=C(N[C@H]1[C@H]2OC[C@](CO)(O2)[C@H](O)[C@@H]1O)C(F)(F)F | 1.8 µM
4 | CC(=O)N[C@H]1[C@H]2OC[C@](CO)(O2)[C@H](O)[C@@H]1O | 7.2 µM
5 | C[C@@H]1O[C@H](CO)[C@H](O)[C@H](O)[C@H]1NC(=O)C(F)(F)F | 14.8 µM
6 | CC(=O)N[C@@H]1[C@@H](O)[C@@H](O)[C@@H](CO)O[C@H]1C | 41 µM
7 | COc1cccc(-n2cc(C[C@H]3O[C@H](OCC(O)CNCc4ccccc4)[C@H](NC(=O)C(F)(F)F)[C@@H](O)[C@H]3O)nn2)c1 (stereo partly drawn) | 1.2 µM
8 | C=CCO[C@H]1O[C@H](CN=[N+]=[N-])[C@H](O)[C@H](O)[C@H]1NC(C)=O | 1.6 µM
